Values of other authors, collected in patent US10016363B2, “Pre-spray emulsions and powders containing non-polar compounds” (VIRUN, INC., priority 2014, dated 2018).

Settings: reported HLB value of surfactant

Substance	H.L.B.
sucrose distearate	3
sucrose monopalmitate	> 10
sucrose dipalmitate	7.4
